These results are taken from patent US10781204B2, “TYK2 inhibitors and uses thereof” (Nimbus Lakshmi, Inc., priority 2015, dated 2020).

The target in assay [1] is TYK2 (Homo sapiens (Human), UniProt P29597). The assay can be described thus: Tyk2 radioactive kinase assay. Particulars: ATP 10 μM. It is filed as biochemical. In short, it runs like this: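 Recombinant human TYK2 (Invitrogen) was mixed with 20 μM peptide substrate in a buffer of 20 mM Hepes pH 7.5, 10 mM MgCl2, 1 mM EGTA, 0.02% Brij35, 0.02 mg/mL BSA, 0.1 mM […], 2 mM DTT and 1% DMSO, and compounds in DMSO were added. Adding ^33P-ATP (10 μM ATP) started the reaction, which ran 120 min at room temperature. Mixtures were then spotted onto P81 ion-exchange paper, washed thoroughly in 0.75% phosphoric acid, and counted for radioactivity.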

Assay [2] concerns the target JAK2 (Homo sapiens (Human), UniProt O60674). Put plainly: JAK2 radioactive kinase assay. The format is biochemical. Particulars: ATP 10 μM. An outline of the steps: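 Radiometric assay in Hepes pH 7.5, MgCl2, EGTA, Brij35, BSA, DTT, 1% DMSO, with 10 μM [33P]ATP, 120 min at room temp; P81 paper capture and counting. […]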
Assay [3] relates to Tyk2-pSTAT4 (IL-12 induced pSTAT4). The assay can be described thus: IL-12 induced pSTAT4 in human PBMC. Particulars: 0.5 h, 1.7 ng/mL IL-12, 30 minutes. It is filed as cell-based. As to the method:
(§1) Human PBMC are isolated from buffy coat and are stored frozen for assays as needed. Cells for assay are thawed and resuspended in complete media containing serum, then cells are diluted to 1.67 E6 cells/ml so that 120 ul per well is 200,000 cells. 15 ul of compound or DMSO is added to the well at the desired concentrations and incubated at 1 hr at 37 C. 15 ul of stimulus (final concentration of 1.7 ng/mL IL-12) is added for 30 minutes prior to pSTAT4 and total STAT4 analysis using cell lysates prepared and analyzed by MSD reagents as per manufacturer protocol. The final DMSO concentration of compound in the assay is 0.1%.

The test system of assay [4] is JAK2-pSTAT5 (GM-CSF induced pSTAT5). Put plainly: GM-CSF induced pSTAT5 in human PBMC. It is filed as cell-based. Particulars: 20 min, 5 ng/mL GM-CSF. As to the method:
as §1
Cells are prepared for analysis as in the above procedure and 15 ul of GM-CSF (final concentration 5 ng/mL) is added for 20 minutes prior to pSTAT5 and total STAT5 analysis using cell lysates prepared and analyzed by MSD reagents as per manufacturer protocol. The final DMSO concentration of compound in the assay is 0.1%.

Where only a bound is given, the exact number is not on record here.

JAK2, sequence (O60674 whole entry): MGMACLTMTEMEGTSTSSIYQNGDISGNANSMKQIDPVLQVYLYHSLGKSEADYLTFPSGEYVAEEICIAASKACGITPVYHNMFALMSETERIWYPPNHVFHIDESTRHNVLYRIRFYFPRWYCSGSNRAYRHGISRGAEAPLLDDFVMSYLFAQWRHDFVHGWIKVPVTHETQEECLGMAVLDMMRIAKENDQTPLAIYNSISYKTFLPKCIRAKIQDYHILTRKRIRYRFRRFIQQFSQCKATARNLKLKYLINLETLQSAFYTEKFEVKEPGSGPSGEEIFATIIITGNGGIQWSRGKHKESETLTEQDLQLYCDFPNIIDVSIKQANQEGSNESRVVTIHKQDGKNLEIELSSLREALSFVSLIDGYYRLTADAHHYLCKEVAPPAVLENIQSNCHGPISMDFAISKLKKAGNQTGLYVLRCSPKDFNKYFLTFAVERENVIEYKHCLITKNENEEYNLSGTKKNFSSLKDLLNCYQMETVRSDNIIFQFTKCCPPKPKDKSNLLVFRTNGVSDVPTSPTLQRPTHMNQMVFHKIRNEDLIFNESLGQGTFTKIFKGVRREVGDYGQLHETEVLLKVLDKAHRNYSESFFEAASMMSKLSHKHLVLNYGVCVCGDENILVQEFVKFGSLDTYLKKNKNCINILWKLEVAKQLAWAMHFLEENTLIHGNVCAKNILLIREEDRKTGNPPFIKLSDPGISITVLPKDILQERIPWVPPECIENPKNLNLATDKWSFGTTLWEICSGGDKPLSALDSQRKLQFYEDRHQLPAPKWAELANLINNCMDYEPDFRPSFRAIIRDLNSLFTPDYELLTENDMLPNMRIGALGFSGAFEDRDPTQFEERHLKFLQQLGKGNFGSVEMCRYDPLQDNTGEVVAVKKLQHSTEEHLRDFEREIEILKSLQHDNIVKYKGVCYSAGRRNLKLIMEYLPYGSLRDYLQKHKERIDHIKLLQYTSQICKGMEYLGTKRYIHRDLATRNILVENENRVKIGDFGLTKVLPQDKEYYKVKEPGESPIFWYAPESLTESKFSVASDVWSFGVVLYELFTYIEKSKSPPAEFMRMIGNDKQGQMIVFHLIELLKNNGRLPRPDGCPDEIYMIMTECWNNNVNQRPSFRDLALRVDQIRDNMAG
TYK2, sequence (P29597 whole entry): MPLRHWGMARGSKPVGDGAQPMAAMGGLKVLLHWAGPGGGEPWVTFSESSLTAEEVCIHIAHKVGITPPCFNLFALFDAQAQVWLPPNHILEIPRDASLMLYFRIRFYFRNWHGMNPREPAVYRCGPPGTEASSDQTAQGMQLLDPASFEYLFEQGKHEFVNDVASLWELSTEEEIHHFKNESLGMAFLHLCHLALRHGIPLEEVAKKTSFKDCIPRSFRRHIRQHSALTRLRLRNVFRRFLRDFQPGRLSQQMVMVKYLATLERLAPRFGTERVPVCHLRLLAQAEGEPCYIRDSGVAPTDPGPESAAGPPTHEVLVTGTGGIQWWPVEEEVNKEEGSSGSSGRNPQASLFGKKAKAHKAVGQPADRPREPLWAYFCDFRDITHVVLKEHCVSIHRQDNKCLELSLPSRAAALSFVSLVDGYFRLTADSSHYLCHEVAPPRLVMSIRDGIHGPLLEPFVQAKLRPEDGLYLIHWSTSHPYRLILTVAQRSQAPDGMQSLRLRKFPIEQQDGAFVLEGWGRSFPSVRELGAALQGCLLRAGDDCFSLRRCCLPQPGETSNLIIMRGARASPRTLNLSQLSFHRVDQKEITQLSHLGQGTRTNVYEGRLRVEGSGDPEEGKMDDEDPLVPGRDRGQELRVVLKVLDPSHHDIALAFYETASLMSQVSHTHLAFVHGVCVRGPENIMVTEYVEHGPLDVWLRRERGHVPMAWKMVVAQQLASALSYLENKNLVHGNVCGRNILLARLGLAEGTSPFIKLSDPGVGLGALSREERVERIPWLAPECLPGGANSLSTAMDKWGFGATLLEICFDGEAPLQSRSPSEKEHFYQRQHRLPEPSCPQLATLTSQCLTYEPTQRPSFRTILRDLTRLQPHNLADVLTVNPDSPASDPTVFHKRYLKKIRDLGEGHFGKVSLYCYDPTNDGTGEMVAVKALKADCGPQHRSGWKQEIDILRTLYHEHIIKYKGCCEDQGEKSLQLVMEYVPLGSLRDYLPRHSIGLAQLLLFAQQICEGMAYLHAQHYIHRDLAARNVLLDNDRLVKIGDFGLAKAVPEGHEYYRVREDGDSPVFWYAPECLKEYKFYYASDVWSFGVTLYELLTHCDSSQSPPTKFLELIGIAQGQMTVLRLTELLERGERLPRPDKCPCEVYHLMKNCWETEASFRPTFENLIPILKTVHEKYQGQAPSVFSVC

For `N#Cc1cccc(F)c1-c1cc(-n2ccc(N3CCC(O)CC3)n2)c2c(n1)CNC2=O` [I-56, 3-fluoro-2-(4-(3-(4-hydroxypiperidin-1-yl)-1H-pyrazol-1-yl)-5-oxo-6,7-dihydro-5H-pyrrolo[3,4-b]pyridin-2-yl)benzonitrile], the inhibitory constant (Ki) fell in the range of 0.1 to 10 nM in assay [1] and 10 to 100 nM in assay [2]. In addition, the EC50 fell in the range of 100 to 2000 nM in assay [3] (Homo sapiens, PBMC) and 100 to 2000 nM in assay [4] (Homo sapiens, PBMC).

Take `N#Cc1cccc(F)c1-c1cc(-n2ccc(N3CC[C@]4(C3)OC[C@H](O)CO4)n2)c2c(n1)CNC2=O` [I-221, 3-fluoro-2-(4-(3-((5r,8r)-8-hydroxy-6,10-dioxa-2-azaspiro-[4.5]decan-2-yl)-1H-pyrazol-1-yl)-5-oxo-6,7-dihydro-5H-pyrrolo[3,4-b]pyridin-2-yl)benzonitrile]: the Ki in assay [1] and in assay [2] was 0.1 to 10 nM in each case. Besides, the EC50 fell in the range of 100 to 2000 nM in assay [3] (Homo sapiens, PBMC) and 100 to 2000 nM in assay [4] (Homo sapiens, PBMC).

Regarding `CC(=O)N[C@@H]1CCCN(c2ccn(-c3cc(-c4c(F)cccc4C#N)nc4c3C(=O)NC4)n2)C1` [I-129, (R)-N-(1-(1-(2-(2-cyano-6-fluorophenyl)-5-oxo-6,7-dihydro-5H-pyrrolo[3,4-b]pyridin-4-yl)-1H-pyrazol-3-yl)piperidin-3-yl)acetamide], the figures for the inhibition constant Ki in assay [1] and in assay [2] were 0.1 to 10 nM and 10 to 100 nM, respectively. For the same compound, the EC50 in assay [3] (Homo sapiens, PBMC) was 100 to 2000 nM; in assay [4] (Homo sapiens, PBMC), over 2000 nM.

Take `CO[C@H]1CN(c2ccn(-c3cc(-c4c(F)cccc4C#N)nc4c3C(=O)NC4)n2)C[C@@]1(C)OC` [I-230, 2-(4-(3-((3R,4S)-3,4-dimethoxy-3-methylpyrrolidin-1-yl)-1H-pyrazol-1-yl)-5-oxo-6,7-dihydro-5H-pyrrolo[3,4-b]pyridin-2-yl)-3-fluorobenzonitrile]: the inhibition constant Ki in assay [1] and in assay [2] was 0.1 to 10 nM in each case. Further, the half-maximal effective concentration (EC50) lay within 100 to 2000 nM in assay [3] (Homo sapiens, PBMC) and 100 to 2000 nM in assay [4] (Homo sapiens, PBMC).

On to `N#Cc1cccc(F)c1-c1cc(-n2ccc(N3CCC[C@H](C(N)=O)C3)n2)c2c(n1)CNC2=O` [I-126, (S)-1-(1-(2-(2-cyano-6-fluorophenyl)-5-oxo-6,7-dihydro-5H-pyrrolo[3,4-b]pyridin-4-yl)-1H-pyrazol-3-yl)piperidine-3-carboxamide], for which the Ki in assay [1] lay within 0.1 to 10 nM; in assay [2] it was 10 to 100 nM. Besides, the EC50 was in the range of 100 to 2000 nM in assay [3] (Homo sapiens, PBMC) and 100 to 2000 nM in assay [4] (Homo sapiens, PBMC).

Take `N#Cc1cccc(F)c1-c1cc(-n2ccc(NCCN3CCOCC3)n2)c2c(n1)CNC2=O` [I-63, 3-fluoro-2-(4-(3-((2-morpholinoethyl)amino)-1H-pyrazol-1-yl)-5-oxo-6,7-dihydro-5H-pyrrolo[3,4-b]pyridin-2-yl)benzonitrile]: the inhibition constant Ki in assay [1] is 0.1 to 10 nM; in assay [2] it was 10 to 100 nM. Besides, the concentration giving a half-maximal response (EC50) in assay [3] and in assay [4] was 100 to 2000 nM throughout.

`CC(C)n1ccc(-c2cc(-c3c(F)cccc3C#N)nc3c2C(=O)NC3)n1` [I-57, 3-fluoro-2-(4-(1-isopropyl-1H-pyrazol-3-yl)-5-oxo-6,7-dihydro-5H-pyrrolo[3,4-b]pyridin-2-yl)benzonitrile]: the Ki lay in the range of 0.1 to 10 nM in assay [1] and 100 to 1000 nM in assay [2]. Also, the 50% effective concentration (EC50) was 100 to 2000 nM in assay [3] (Homo sapiens, PBMC) and 100 to 2000 nM in assay [4] (Homo sapiens, PBMC).

`CN1CCO[C@@H]2CN(c3ccn(-c4cc(-c5c(F)cccc5C#N)nc5c4C(=O)NC5)n3)C[C@@H]21` [I-225, 3-fluoro-2-(4-(3-((4aS,7aR)-4-methylhexahydropyrrolo[3,4-b][1,4]oxazin-6 (2H)-yl)-1H-pyrazol-1-yl)-5-oxo-6,7-dihydro-5H-pyrrolo[3,4-b]pyridin-2-yl)benzonitrile]: the inhibitory constant (Ki) in assay [1] and in assay [2] was 0.1 to 10 nM in each case. Moreover, the half-maximal effective concentration (EC50) in assay [3] (Homo sapiens, PBMC) fell in the range of 100 to 2000 nM; in assay [4] (Homo sapiens, PBMC) it was 100 to 2000 nM.

Take `N#Cc1cccc(F)c1-c1cc(-n2ccc(N3CCCC(N)(C(F)(F)F)C3)n2)c2c(n1)CNC2=O` (stereo not drawn) [I-84, 2-(4-(3-(3-amino-3-(trifluoromethyl)piperidin-1-yl)-1H-pyrazol-1-yl)-5-oxo-6,7-dihydro-5H-pyrrolo[3,4-b]pyridin-2-yl)-3-fluorobenzonitrile]: the inhibition constant Ki in assay [1] fell in the range of 0.009 to 0.1 nM; in assay [2] it was 0.1 to 10 nM. Also, the EC50 lay within 30 to 100 nM in assay [3] (Homo sapiens, PBMC) and 100 to 2000 nM in assay [4] (Homo sapiens, PBMC).

Regarding `C[C@]1(O)CN(c2ccn(-c3cc(-c4c(F)cccc4C#N)nc4c3C(=O)NC4)n2)CC[C@H]1O` [I-162, 2-(4-(3-((3S,4R)-3,4-dihydroxy-3-methylpiperidin-1-yl)-1H-pyrazol-1-yl)-5-oxo-6,7-dihydro-5H-pyrrolo[3,4-b]pyridin-2-yl)-3-fluorobenzonitrile], the results for the Ki in assay [1] and in assay [2] were 0.009 to 0.1 nM and 0.1 to 10 nM, respectively. Moreover, the EC50 in assay [3] (Homo sapiens, PBMC) is 100 to 2000 nM; in assay [4] (Homo sapiens, PBMC) it was 100 to 2000 nM.

Take `N#Cc1cccc(F)c1-c1cc(-n2ccc(N3CCC(O)C3)n2)c2c(n1)CNC2=O` (stereo not drawn) [I-76, 3-fluoro-2-(4-(3-(3-hydroxypyrrolidin-1-yl)-1H-pyrazol-1-yl)-5-oxo-6,7-dihydro-5H-pyrrolo[3,4-b]pyridin-2-yl)benzonitrile]: the Ki in assay [1] fell in the range of 0.009 to 0.1 nM; in assay [2], 0.1 to 10 nM. The EC50 in assay [3] (Homo sapiens, PBMC) is 30 to 100 nM; in assay [4] (Homo sapiens, PBMC), 100 to 2000 nM.

With `[2H]C1([2H])NC(=O)c2c(-n3ccc(N4CC[C@@H](O)C4)n3)cc(-c3c(F)cccc3C#N)nc21` [I-114, (R)-3-fluoro-2-(4-(3-(3-hydroxypyrrolidin-1-yl)-1H-pyrazol-1-yl)-5-oxo-6,7-dihydro-5H-pyrrolo[3,4-b]pyridin-2-yl-7,7-d2)benzonitrile], the Ki in assay [1] and in assay [2] was 0.1 to 10 nM each time. In addition, the EC50 in assay [3] (Homo sapiens, PBMC) lay within 30 to 100 nM; in assay [4] (Homo sapiens, PBMC) it was 100 to 2000 nM.

Turning to `CO[C@H]1CN(c2ccn(-c3cc(-c4c(F)cccc4C#N)nc4c3C(=O)NC4)n2)C[C@H]1O` [I-153, 3-fluoro-2-(4-(3-((3R,4S)-3-hydroxy-4-methoxypyrrolidin-1-yl)-1H-pyrazol-1-yl)-5-oxo-6,7-dihydro-5H-pyrrolo[3,4-b]pyridin-2-yl)benzonitrile], the Ki in assay [1] was 0.1 to 10 nM. For the same compound, the EC50 in assay [3] (Homo sapiens, PBMC) was 30 to 100 nM; in assay [4] (Homo sapiens, PBMC), over 2000 nM.

Turning to `N#Cc1cccc(F)c1-c1cc(-n2cc3c(n2)CC(C(N)=O)CN3)c2c(n1)CNC2=O` (stereo not drawn) [I-180, 2-(2-(2-cyano-6-fluorophenyl)-5-oxo-6,7-dihydro-5H-pyrrolo-[3,4-b]pyridin-4-yl)-4,5,6,7-tetrahydro-2H-pyrazolo[4,3-b]pyridine-6-carboxamide], the Ki was in the range of 0.1 to 10 nM in assay [1] and 10 to 100 nM in assay [2]. Moreover, in assay [4] (Homo sapiens, PBMC), the 50% effective concentration (EC50) was over 2000 nM.

`N#Cc1cccc(F)c1-c1cc(-c2cc3n(n2)CC(O)CN3)c2c(n1)CNC2=O` (stereo not drawn) [I-235, 3-fluoro-2-(4-(6-hydroxy-4,5,6,7-tetrahydropyrazolo[1,5-a]pyrimidin-2-yl)-5-oxo-6,7-dihydro-5H-pyrrolo[3,4-b]pyridin-2-yl)benzonitrile]: the inhibition constant (Ki) in assay [1] and in assay [2] was 0.1 to 10 nM each time. Besides, the EC50 in assay [4] (Homo sapiens, PBMC) was over 2000 nM.

On to `CC1CC(O)CC(C)N1c1ccn(-c2cc(-c3c(F)cccc3C#N)nc3c2C(=O)NC3)n1` (stereo not drawn) [I-85, 3-fluoro-2-(4-(3-(4-hydroxy-2,6-dimethylpiperidin-1-yl)-1H-pyrazol-1-yl)-5-oxo-6,7-dihydro-5H-pyrrolo[3,4-b]pyridin-2-yl)benzonitrile], for which the Ki was 10 to 100 nM in assay [1] and at least 1000 nM in assay [2]. For the same compound, the EC50 in assay [4] (Homo sapiens, PBMC) is over 2000 nM.

Consider `CCNC(=O)Cc1ccn(-c2cc(-c3c(F)cccc3F)nc3c2C(=O)NC3)n1` [I-2, 2-(1-(2-(2,6-difluorophenyl)-5-oxo-6,7-dihydro-5H-pyrrolo[3,4-b]pyridin-4-yl)-1H-pyrazol-3-yl)-N-ethylacetamide], for which the results for the inhibition constant Ki in assay [1] and in assay [2] were 10 to 100 nM and at least 1000 nM, respectively. The compound also yielded a 50% effective concentration (EC50) in assay [4] of over 2000 nM.

Regarding `O=C1NCc2nc(-c3c(F)cccc3F)cc(-n3ccc(N4CCOCC4CO)n3)c21` (stereo not drawn) [I-90, 2-(2,6-difluorophenyl)-4-(3-(3-(hydroxymethyl)morpholino)-1H-pyrazol-1-yl)-6,7-dihydro-5H-pyrrolo[3,4-b]pyridin-5-one], the Ki in assay [1] fell in the range of 0.1 to 10 nM; in assay [2], 100 to 1000 nM. The same compound had an EC50 in assay [4] (Homo sapiens, PBMC) of over 2000 nM.

As for `N#Cc1cccc(F)c1-c1cc(-n2ccc(N3C[C@@H](O)[C@@H](O)C3)n2)c2c(n1)CNC2=O` [I-109, 2-(4-(3-((3S,4R)-3,4-dihydroxypyrrolidin-1-yl)-1H-pyrazol-1-yl)-5-oxo-6,7-dihydro-5H-pyrrolo[3,4-b]pyridin-2-yl)-3-fluorobenzonitrile], the inhibition constant (Ki) in assay [1] and in assay [2] was 0.1 to 10 nM in each case. The compound also yielded a half-maximal effective concentration (EC50) in assay [4] (Homo sapiens, PBMC) of over 2000 nM.

Broadly, the Ki is a measure of affinity in units of concentration, obtained from inhibition or displacement. The term EC50 denotes the concentration at which the effect is half-maximal. A high value points to weaker potency.
